Reference: patent US5583018A, “Rapamycin derivative process for its preparation and its use” (SmithKline Beecham p.l.c., priority 1993, dated 1996)

Tests used:
[1] = test system: Saccharomyces cerevisiae; test: Assay for antifungal activity (agar well zone of inhibition); type: cell-based
Method: Yeast organism (Saccharomyces cerevisiae) in logarithmic growth were plated on complete agar medium (YPD). Compounds dissolved in an appropriate aqueous or organic solvent were placed in wells punched in the agar. Plates were incubated for 48 hours and zones of inhibition were measured. The potency of compounds were quantified by regression analysis of plots of inhibition zone versus the log of drug concentration.

[2] = test system: Spleen cells; test: Mitogenesis assay for immunosuppressive activity (Concanavalin A stimulated spleen cells, 3H-thymidine); type: cell-based, BDF1 female mice
Method: Spleen cells for BDF1 female mice were established in RPMI with 10% fetal calf serum at 5×10^6 /mL. One hundred […] of this suspension (5×10^5 cells) were dispensed into 96-well round-bottomed microtiter plates (Linbro, Flow Laboratories). Concanavalin A (5 μg/ml) was added as the mitogenic stimulus, and the final volume in the microliter wells was adjusted to 200 μL with RPMI. Cell cultures were incubated for 72 hours at 37° C. in a 5% CO2 atmosphere and pulsed with 0,5 μCi ^3 H-thymidine (specific activity […]) for the last 18 hours of the 72 hours culture. The cells were harvested on an automated multiple sample harvester and cell-associated radioactivity counted in a Beckman liquid scintillation counter. The results were expressed as the mean values derived from quadruplicate measurements. Cell viability was determined by trypan blue exclusion after 72 hours of incubation. Compounds to be tested were added to the microtiler plates at the appropriate dilutions prior to the addition of cells.

13,14-Bis(dihydro)rapamycin
antifungal activity (in words) [1]: shows antifungal activity | Antifungal Activity, IC12 ([1]; Saccharomyces cerevisiae on YPD agar, 48 hours, zones of inhibition): 190 to 840 ng/mL | immunomodulatory activity (in words) [2]: shows immunomodulatory activity | IC50 ([2]; spleen cells of BDF1 mice, Concanavalin A 5 μg/ml, 72 hours): 70 to 200 nM
